# Measured values: patent US20180042931A1 (Bayer Pharma Aktiengesellschaft, priority 2015, published 2018)
# Legend:
# [1] = test system: constitutive active colorectal cancer cell (CRC) Wnt pathway; experiment: Cellular reporter assay, HCT116 cells stably transfected with Super TopFlash vector (HCT116-TOP), luciferase readout; format: cell-based; settings: Homo sapiens, HCT-116, 36 hours incubation, luciferase expression, average or median values
# Method: In order to discover and characterize small molecules which inhibit the constitutive active colorectal cancer cell (CRC) Wnt pathway, a cellular reporter assay was employed. The corresponding assay cell was generated by transfection of the colorectal cancer cell line HCT116 (ATCC, #CCL-247) with the Super TopFlash vector (Morin, Science 275, 1997, 1787-1790; Molenaar et al., Cell 86 (3), 1996, 391-399). The HCT116 cell line is cultivated at 37° C. and 5% CO2 in DMEM/F-12 (Life Technologies, #11320-074), supplemented with 2 mM glutamine, 20 mM HEPES, 1.4 mM pyruvate, 0.15% Na-bicarbonate and 10% foetal bovine serum (GIBCO, #10270), this cancer cell line is pathophysiological relevant since it carries a deletion of position S45 in the β-catenin gene, leading to constitutive active Wnt signaling. Stable transfectants were generated by cotransfection with pcDNA3 and selection of stable transfected cells with 1 mg/mL G418.
# (§1) In preparation of the assay, the two cell lines were plated 24 hours before at 10000 cells per well of a 384 micro titre plate (MTP) in 30 μL growth medium. Selective inhibitory activity for small molecules on the mutated Wnt pathway was determined after parallel incubation of both (TOP and FOP) HCT116 reporter cell lines with a compound dilution series from 50 μM to 15 nM in steps of 3.16-fold dilutions in CAFTY buffer (130 mM NaCl, 5 mM KCl, 20 mM HEPES, 1 mM MgCl2, 5 mM NaHCO3, pH 7.4) containing 2 mM Ca^2+ and 0.01% BSA. The compounds were thereby serially prediluted in 100% DMSO and thereafter in addition 50 fold into the CAFTY compound dilution buffer (described above). From this dilution 10 μL were added to the cells in 30 μL growth medium and incubated for 36 hours at 37° C. and 5% CO2. Thereafter luciferase assay buffer (1:1 mixture of luciferase substrate buffer (20 mM Tricine, 2.67 mM MgSO4, 0.1 mM EDTA, 4 mM DTT, 270 μM Coenzyme A, 470 μM Luciferin, 530 μM ATP, ph adjusted to pH 7.8 with a sufficient volume of 5M NaOH) and Triton buffer (30 mL Triton X-100, 115 mL glycerol, 308 mg Dithiothreitol, 4.45 g Na2HPO4.2H2O, 3.03 g TRIS HCl, ad 1I H2O, pH 7.8) was added as equal volume to the compound solution on the cells to determine luciferase expression as a measure of Wnt signaling activity in a luminometer.
# [2] = test system: FOP control vector (randomized, non-functional sequence instead of functional TCF elements) in HCT116 cells; experiment: Control reporter assay, HCT116 cells stably transfected with FOP control vector (HCT116-FOP), luciferase readout; format: cell-based; settings: Homo sapiens, HCT-116, 36 hours incubation, luciferase expression, dilution series up to 50 μM
# Method: In a parallel approach, HCT116 cells were cotransfected with the FOP control vector and pcDNA3. The FOP vector is identical to the TOP construct, but it contains instead of functional TCF elements a randomized, non-functional sequence. For this transfection a stable transfected cell line was generated as well.
# as §1
IC50 [1] [µM],IC50 [2] [µM],Compound
23,≥ 50,"COc1ccc(NC(=O)c2ccc(-c3cnc(N)nc3)cc2)cc1NC(=O)CN1CCOCC1 [Example 37, 4-(2-aminopyrimidin-5-yl)-N-{4-methoxy-3-[(morpholin-4-ylacetyl)amino]phenyl} benzamide]"
10.9,≥ 50,"COc1ccc(NC(=O)c2ccc(-c3cccnc3)cc2)cc1NC(=O)CN1CCOCC1 [Example 38, N-{4-methoxy-3-[(morpholin-4-ylacetyl)amino]phenyl)-4-(pyridin-3-yl)benzamide]"
5.4,≥ 50,"O=C(CN1CCOCC1)Nc1cc(C(=O)Nc2ccc(-c3cccnc3F)cc2)ccc1OC(F)F [Example 39, 4-(difluoromethoxy)-N-[4-(2-fluoropyridin-3-yl)phenyl]-3-[(morpholin-4-ylacetyl)amino] benzamide]"
